Assay results: ChEMBL document CHEMBL1201862, “PubChem BioAssay data set” (2004)
“And” between values parts separate entries of the source, which are not always exact repeats. Identical values can stand only once. One block for each compound: values may come before it. The source made the active and inactive calls.

Key:
[1] = Luminescence Cell-Based Dose Confirmation HTS to Identify Inhibitors of Polyadenylation.; type: functional
[2] = reduced cellular PGC1a acetyl-lysine signal – cell-based, cherry-picked samples, dose response (AID 720514); type: functional;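 also: potency may reflect raised or lowered acetylation signal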
[3] = NIH-3T3 fibroblast cytotoxicity, dose response, cytotoxicity control, cell-based, fluorescence, Alamar Blue, secondary assay (AID 2327); type: functional;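 also: NIH-3T3 mouse fibroblasts cultured with fluconazole at 8 µg/mL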
[4] = reduction of Shn3 3'UTR-driven luciferase in osteoblasts – cell-based, Clone20 osteoblasts, firefly luciferase, cherry-picked, dose response (AID 624132); type: functional;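 also: firefly luciferase luminescence from reporter carrying the Shn3 3'UTR in osteoblasts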
[5] = viability loss of HPDE-C7K cells – cell-based, fluorescence, HTS, primary screen (AID 431); type: functional; settings: Homo sapiens
[6] = molecular target: G-protein coupled receptor 55 (Homo sapiens, UniProt Q9Y2T6); assay: inhibition of LPI-stimulated GPR55 beta-arrestin translocation – imaging, U2OS, beta-arrestin-GFP, LPI agonist, primary screen (AID 2013); type: functional;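 also: antagonist potency measured as reduced agonist-driven arrestin aggregation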
Bcl-2-related protein A1 [7] = molecular target: T1, Bcl-2-related protein A1 (Mus musculus, UniProt Q07440); assay: small-molecule antagonists of Bfl-1/BH3 interaction – biochemical, TR-FRET, mouse Bfl-1, confirmation (AID 621);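 also: TR-FRET binding of GST-Bfl-1 to FITC-labelled Bid peptide via terbium antibody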
T1 sequence (Q07440 whole entry): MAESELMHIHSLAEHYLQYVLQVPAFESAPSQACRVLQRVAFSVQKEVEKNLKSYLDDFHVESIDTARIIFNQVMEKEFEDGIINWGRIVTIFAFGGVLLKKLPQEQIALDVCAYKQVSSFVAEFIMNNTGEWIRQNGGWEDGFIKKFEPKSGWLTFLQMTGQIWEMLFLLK

[8] = non-specific 3'UTR reporter inhibition in Clone20-Shn3RL – cell-based, Renilla luciferase, cherry-picked, counter-screen for Shn3 inhibitor project, dose response (AID 624133); type: functional
[9] = HPDE-C7 pancreatic duct cell viability loss – fluorescence, HTS (AID 430); type: functional, cell-based; settings: Homo sapiens
HEK293 = assay: SAR analysis of compounds that are cytotoxic to HEK293 - Set 3. [Related pubchem assays (depositor defined):AID1575, AID1578, AID1848, AID1849, AID2001, AID2333, AID2334, AID2335, AID2337, AID2469]; type: functional, cell-based; settings: Homo sapiens
[10] = loss of viability in HepG2 cells – cell-based, CellTiter-Glo, cherry-picked, cytotoxicity control for Shn3 inhibitor project, dose response (AID 624134); type: functional
[11] = molecular target: T2, Nucleotide-binding oligomerization domain-containing protein 1 (Homo sapiens, UniProt Q9Y239); assay: SAR analysis of compounds that inhibit NOD1 - Set 3. [Related pubchem assays (depositor defined):AID1566, AID1575, AID1578, AID1849, AID1852, AID2333, AID2335, AID2466]; type: functional
T2 sequence (Q9Y239 whole entry): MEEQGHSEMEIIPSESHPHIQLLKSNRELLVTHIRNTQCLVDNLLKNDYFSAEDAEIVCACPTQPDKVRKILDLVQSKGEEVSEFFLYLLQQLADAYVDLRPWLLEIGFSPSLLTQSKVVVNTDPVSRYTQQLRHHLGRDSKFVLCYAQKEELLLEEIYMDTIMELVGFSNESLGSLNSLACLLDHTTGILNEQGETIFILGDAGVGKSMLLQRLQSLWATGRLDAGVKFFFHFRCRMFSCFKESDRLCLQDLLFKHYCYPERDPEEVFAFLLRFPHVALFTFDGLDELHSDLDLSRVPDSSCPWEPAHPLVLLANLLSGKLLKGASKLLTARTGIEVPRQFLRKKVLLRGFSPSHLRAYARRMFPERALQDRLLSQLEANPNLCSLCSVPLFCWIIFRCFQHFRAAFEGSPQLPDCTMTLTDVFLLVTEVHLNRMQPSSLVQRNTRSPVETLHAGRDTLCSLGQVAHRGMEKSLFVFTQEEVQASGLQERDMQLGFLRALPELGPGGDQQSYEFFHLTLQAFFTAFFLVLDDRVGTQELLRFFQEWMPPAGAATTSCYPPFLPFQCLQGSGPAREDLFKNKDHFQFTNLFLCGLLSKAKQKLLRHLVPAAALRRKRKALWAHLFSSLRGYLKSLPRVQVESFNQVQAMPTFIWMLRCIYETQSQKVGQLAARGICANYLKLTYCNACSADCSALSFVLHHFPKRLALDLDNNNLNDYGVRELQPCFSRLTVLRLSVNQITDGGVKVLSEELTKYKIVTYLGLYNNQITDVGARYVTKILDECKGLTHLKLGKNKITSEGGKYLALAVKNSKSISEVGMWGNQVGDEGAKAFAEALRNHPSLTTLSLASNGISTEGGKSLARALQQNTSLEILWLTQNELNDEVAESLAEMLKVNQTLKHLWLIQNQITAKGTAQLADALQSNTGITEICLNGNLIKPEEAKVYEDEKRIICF

Beta-galactosidase = Beta-galactosidase (Escherichia coli, UniProt Q8VNN2); assay: detection-enzyme interference by beta-gal modulators – biochemical, E. coli enzyme, set 3, artefact control for CCR6 antagonist project, dose response (AID 504712); type: functional
[12] = molecular target: T3, Hepatocyte nuclear factor 4-alpha (Homo sapiens, UniProt P41235); type: functional, cell-based;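 also: biochemical luminescence-based dose-response counterscreen measuring inhibition of HNF4 dimerization, run alongside a screen for blockers of ABHD5–perilipin-5 interaction; split luciferase complementation of HNF4 fusion proteins in cell lysate measuring dimerization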
T3 sequence (P41235 whole entry): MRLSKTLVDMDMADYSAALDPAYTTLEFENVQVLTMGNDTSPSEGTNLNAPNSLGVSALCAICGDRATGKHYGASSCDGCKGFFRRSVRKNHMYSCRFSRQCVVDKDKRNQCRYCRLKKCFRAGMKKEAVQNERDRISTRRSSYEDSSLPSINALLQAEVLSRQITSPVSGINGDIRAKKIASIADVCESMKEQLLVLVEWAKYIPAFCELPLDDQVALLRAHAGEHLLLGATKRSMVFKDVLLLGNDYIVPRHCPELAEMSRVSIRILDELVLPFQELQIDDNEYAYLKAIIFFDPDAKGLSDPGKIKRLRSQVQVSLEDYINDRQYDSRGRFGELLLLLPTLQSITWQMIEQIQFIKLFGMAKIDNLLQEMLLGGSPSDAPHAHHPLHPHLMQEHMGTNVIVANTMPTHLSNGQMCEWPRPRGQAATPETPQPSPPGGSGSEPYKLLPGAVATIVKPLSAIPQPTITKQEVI

Bcl-2-related protein A1 [13] = molecular target: T1, Bcl-2-related protein A1; assay: displacement of Bid BH3 peptide from Bfl-1 – biochemical, fluorescence polarization, FITC-Bid, mouse, primary screen (AID 432)
[14] = viability loss in HEK293T cells – cell-based, cherry-picks, cytotoxicity control for HIV Vif inhibitor project, dose response (AID 652208); type: functional
[15] = molecular target: Glyceraldehyde-3-phosphate dehydrogenase (Homo sapiens, UniProt P04406)
[16] = fluconazole-exposed Candida albicans growth modulators – fluorescence, retest, confirmation (AID 2467); type: functional, cell-based
Tumor necrosis factor = Tumor necrosis factor (Homo sapiens, UniProt P01375); assay: analog potency on TNFa NF-kB signaling – cell-based, set 3, SAR follow-up (AID 2801); type: functional
[17] = Fluorescence-based cell-based high throughput dose response assay for inhibitors of the interaction of nucleotide-binding oligomerization domain containing 2 (NOD2) and the receptor-interacting serine-threonine kinase 2 (RIPK2).; type: functional, Homo sapiens; settings: Homo sapiens
Bcl-2-related protein A1 [18] = molecular target: T1, Bcl-2-related protein A1; assay: Bfl-1 binding inhibitors, SAR follow-up, biochemical, fluorescence polarization (AID 1070)
[19] = molecular target: Nucleotide-binding oligomerization domain-containing protein 2 (Homo sapiens, UniProt Q9HC29); assay: inhibition of MDP-driven NOD2 NF-kB reporter – cell-based, set 3, SAR follow-up (AID 2799); type: functional
Beta Lactamase = Beta Lactamase (Pseudomonas aeruginosa, UniProt Q932Y6); assay: BLA reporter interference, concentration series – BLA reporter cells, FRET fluorescence, artefact control for NOD2-RIPK2 interaction inhibitor project, dose response (AID 651552); type: functional, cell-based
[20] = molecular target: Sphingosine 1-phosphate receptor 2 (Homo sapiens, UniProt O95136); assay: Dose Response Cell Based Assay for Agonists of the S1P2 Receptor of Purchased Analogues. [Related pubchem assays: 729, 843, 854, 736 ]; type: functional
[21] = molecular target: Protein-tyrosine kinase 2-beta (Homo sapiens, UniProt Q14289);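 also: potency of inhibitors of PYK2 kinase phosphorylation of poly-GT substrate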
Procathepsin L = Procathepsin L (Homo sapiens, UniProt P07711); assay: CTSL1 protease inhibition – biochemical, QFRET, 1536-well, counter-screen for M1/M17 aminopeptidase inhibitor project, dose response (AID 2214)
Leucine aminopeptidase = molecular target: T4, Leucine aminopeptidase (Plasmodium falciparum 3D7, UniProt Q8IL11); assay: P. falciparum M17LAP inhibitors, primary screen, biochemical, fluorogenic H-Leu-NHMec substrate, 1536-well (AID 1619); type: functional
T4 sequence (Q8IL11 whole entry): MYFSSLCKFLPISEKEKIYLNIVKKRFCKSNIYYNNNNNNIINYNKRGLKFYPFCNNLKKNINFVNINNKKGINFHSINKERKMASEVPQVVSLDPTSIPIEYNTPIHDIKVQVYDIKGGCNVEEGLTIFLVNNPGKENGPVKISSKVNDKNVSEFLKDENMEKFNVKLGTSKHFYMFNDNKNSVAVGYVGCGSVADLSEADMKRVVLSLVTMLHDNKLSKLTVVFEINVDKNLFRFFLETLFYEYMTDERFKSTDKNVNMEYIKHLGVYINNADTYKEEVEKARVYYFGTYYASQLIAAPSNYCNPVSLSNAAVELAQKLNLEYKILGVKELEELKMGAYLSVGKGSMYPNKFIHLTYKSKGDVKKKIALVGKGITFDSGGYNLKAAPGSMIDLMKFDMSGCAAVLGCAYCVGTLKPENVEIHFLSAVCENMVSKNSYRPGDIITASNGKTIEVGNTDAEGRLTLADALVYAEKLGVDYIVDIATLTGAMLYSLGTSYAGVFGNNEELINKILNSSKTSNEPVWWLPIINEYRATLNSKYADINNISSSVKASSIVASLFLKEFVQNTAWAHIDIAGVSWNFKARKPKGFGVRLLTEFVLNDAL

Aspartyl aminopeptidase = Aspartyl aminopeptidase (Plasmodium falciparum 3D7, UniProt Q8I2J3); assay: Counterscreen for inhibitors of M1 and M17 aminopeptidases: QFRET-based biochemical high throughput dose response assay for inhibitors of the Plasmodium falciparum M18 Aspartyl Aminopeptidase (PFM18AAP). [Related PubChem assays: 1619 (Screening assay (M17LAP inhibitors).), 1445 (Screening assay (M1AAP inhibitors).)]
[22] = molecular target: Lytic switch protein BZLF1 (Epstein-Barr virus (strain B95-8) (HHV-4) (Human herpesvirus 4), UniProt P03206); assay: inhibition of BZLF1 ZTA DNA binding – biochemical, fluorescence polarization, Epstein-Barr virus, 1536-well, counter-screen for EBNA-1 inhibitor project, dose response (AID 2377); design: species or system human gammaherpesvirus 4;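 also: fluorescence polarization of Cy5-labelled ZRE DNA probe bound by purified Zta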
[23] = molecular target: Epstein-Barr nuclear antigen 1 (Epstein-Barr virus (strain B95-8) (HHV-4) (Human herpesvirus 4), UniProt P03211); assay: inhibition of EBV nuclear antigen 1 DNA binding – biochemical, fluorescence polarization, 1536-well, dose response (AID 2381); design: species or system human gammaherpesvirus 4;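 also: fluorescence polarization of a Cy5 DNA probe bound by EBNA-1 protein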
Estrogen receptor = molecular target: T5, Estrogen receptor (Homo sapiens, UniProt P03372); assay: ERα coactivator recruitment enhancers – biochemical, TR-FRET, ERα LBD, dose response (AID 737)
T5 sequence (P03372 whole entry): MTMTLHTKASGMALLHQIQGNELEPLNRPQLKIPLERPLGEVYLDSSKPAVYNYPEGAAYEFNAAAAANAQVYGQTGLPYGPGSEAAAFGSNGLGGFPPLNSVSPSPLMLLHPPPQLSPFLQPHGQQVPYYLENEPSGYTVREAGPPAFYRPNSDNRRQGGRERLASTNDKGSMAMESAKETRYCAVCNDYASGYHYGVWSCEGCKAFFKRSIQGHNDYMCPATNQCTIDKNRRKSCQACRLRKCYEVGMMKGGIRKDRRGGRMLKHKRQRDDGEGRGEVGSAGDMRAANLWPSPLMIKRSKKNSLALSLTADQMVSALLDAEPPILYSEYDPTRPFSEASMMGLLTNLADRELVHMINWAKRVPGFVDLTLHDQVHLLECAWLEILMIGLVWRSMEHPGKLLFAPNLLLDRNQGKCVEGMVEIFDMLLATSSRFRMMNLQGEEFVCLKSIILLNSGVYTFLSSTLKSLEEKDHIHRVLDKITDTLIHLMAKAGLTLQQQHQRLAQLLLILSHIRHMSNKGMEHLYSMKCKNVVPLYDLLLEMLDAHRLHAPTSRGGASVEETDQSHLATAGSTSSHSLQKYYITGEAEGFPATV

G-protein coupled receptor 55, sequence (Q9Y2T6 whole entry): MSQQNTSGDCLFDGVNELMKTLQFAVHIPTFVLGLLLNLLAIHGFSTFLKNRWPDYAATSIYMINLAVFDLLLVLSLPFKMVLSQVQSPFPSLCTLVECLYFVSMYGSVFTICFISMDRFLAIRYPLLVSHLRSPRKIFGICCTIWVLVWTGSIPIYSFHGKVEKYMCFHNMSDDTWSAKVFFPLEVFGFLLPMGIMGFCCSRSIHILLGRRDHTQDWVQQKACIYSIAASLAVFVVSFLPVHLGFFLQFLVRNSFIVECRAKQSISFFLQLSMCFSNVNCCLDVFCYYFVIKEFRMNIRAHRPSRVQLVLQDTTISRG
Sphingosine 1-phosphate receptor 2, sequence (O95136 whole entry): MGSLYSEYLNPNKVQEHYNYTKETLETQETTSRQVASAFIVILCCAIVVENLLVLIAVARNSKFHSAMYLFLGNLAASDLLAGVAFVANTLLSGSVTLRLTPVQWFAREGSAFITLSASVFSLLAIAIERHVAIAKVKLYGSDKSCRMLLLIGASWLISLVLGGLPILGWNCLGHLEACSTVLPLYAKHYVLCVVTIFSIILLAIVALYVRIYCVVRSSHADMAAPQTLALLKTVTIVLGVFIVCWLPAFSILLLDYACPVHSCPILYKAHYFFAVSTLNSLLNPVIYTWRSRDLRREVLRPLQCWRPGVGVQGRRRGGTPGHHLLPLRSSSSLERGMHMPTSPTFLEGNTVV
Epstein-Barr nuclear antigen 1, sequence (P03211 whole entry, the tested form may be a part): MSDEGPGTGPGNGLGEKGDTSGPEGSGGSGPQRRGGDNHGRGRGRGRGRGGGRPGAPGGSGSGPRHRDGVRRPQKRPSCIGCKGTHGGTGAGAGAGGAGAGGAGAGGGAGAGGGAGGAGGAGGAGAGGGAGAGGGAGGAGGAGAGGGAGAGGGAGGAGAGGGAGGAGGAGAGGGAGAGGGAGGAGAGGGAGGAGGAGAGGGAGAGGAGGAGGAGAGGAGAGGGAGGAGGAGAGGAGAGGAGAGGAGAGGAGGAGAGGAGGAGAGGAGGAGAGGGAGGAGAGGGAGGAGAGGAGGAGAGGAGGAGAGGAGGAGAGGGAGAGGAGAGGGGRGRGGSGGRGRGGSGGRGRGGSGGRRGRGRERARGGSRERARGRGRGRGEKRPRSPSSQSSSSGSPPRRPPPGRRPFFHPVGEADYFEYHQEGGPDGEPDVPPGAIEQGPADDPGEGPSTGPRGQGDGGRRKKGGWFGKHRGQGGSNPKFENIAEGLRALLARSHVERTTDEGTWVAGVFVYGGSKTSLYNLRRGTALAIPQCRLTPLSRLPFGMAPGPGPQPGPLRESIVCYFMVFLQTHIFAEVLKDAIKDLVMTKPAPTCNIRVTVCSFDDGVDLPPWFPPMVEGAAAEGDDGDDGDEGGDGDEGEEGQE
Glyceraldehyde-3-phosphate dehydrogenase, sequence (P04406 whole entry): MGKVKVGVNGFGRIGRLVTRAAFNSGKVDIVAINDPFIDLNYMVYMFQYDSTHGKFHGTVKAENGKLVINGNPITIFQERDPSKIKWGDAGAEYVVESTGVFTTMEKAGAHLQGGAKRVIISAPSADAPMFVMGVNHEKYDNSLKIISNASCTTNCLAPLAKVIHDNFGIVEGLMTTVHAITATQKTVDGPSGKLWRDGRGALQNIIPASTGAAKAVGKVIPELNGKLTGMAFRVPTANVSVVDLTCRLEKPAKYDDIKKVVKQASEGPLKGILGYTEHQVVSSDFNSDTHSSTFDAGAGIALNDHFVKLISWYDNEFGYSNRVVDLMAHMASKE
Aspartyl aminopeptidase, sequence (Q8I2J3 whole entry): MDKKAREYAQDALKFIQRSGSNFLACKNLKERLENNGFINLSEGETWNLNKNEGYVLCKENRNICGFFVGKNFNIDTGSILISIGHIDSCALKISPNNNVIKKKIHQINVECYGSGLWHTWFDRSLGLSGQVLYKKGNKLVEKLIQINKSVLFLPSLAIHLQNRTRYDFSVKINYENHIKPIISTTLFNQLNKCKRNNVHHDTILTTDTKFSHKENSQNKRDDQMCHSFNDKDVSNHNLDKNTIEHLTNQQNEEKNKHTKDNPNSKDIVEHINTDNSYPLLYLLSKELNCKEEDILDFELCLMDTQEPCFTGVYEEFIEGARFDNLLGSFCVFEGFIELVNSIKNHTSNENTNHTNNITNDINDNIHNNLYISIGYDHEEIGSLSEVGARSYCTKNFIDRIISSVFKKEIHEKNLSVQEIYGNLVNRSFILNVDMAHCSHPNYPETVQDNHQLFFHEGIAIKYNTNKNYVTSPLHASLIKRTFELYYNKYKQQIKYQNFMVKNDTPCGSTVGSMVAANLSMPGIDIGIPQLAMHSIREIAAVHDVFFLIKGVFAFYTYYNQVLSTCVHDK
Lytic switch protein BZLF1, sequence (P03206 whole entry): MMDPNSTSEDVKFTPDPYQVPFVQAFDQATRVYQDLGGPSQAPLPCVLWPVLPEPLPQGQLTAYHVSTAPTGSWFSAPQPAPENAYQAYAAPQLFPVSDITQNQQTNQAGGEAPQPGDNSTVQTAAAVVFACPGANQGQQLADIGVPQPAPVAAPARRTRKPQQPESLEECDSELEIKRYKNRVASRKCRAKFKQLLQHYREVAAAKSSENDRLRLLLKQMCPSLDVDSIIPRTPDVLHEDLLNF
Nucleotide-binding oligomerization domain-containing protein 2, sequence (Q9HC29 whole entry, the tested form may be a part): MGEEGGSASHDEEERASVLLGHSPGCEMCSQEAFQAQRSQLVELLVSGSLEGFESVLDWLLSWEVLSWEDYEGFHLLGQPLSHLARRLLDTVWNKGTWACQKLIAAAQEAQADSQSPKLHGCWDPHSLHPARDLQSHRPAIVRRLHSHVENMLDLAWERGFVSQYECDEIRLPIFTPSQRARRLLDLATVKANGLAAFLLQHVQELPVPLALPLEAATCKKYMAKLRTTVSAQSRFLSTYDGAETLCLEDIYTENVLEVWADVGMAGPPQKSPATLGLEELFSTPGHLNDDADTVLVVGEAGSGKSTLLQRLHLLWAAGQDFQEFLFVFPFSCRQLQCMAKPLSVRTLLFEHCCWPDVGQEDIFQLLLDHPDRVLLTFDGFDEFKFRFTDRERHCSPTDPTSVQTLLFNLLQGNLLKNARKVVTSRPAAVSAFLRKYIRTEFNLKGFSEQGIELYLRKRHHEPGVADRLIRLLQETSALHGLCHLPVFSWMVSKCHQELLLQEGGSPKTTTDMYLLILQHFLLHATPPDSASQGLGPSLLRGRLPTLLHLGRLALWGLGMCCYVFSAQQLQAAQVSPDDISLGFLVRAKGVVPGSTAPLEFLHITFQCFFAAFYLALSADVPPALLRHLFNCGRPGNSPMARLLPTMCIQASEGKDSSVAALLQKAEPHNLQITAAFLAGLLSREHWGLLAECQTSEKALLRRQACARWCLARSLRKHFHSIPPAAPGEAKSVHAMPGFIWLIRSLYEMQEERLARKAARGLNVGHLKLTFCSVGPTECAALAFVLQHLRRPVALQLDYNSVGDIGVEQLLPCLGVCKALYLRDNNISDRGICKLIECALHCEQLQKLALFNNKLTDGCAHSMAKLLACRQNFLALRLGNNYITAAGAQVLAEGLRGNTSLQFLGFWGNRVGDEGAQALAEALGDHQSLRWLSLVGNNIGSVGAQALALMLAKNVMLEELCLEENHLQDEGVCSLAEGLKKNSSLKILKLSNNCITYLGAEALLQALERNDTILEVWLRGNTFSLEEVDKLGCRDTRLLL
Tumor necrosis factor, sequence (P01375 whole entry, the tested form may be a part): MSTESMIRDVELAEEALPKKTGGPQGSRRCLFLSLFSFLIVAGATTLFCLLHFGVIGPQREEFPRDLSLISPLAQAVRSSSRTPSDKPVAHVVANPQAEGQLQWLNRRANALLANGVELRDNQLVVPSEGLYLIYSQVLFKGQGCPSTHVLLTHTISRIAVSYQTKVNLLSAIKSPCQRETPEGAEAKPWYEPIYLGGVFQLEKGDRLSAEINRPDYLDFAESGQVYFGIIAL
Beta-galactosidase, sequence (Q8VNN2 whole entry, the tested form may be a part): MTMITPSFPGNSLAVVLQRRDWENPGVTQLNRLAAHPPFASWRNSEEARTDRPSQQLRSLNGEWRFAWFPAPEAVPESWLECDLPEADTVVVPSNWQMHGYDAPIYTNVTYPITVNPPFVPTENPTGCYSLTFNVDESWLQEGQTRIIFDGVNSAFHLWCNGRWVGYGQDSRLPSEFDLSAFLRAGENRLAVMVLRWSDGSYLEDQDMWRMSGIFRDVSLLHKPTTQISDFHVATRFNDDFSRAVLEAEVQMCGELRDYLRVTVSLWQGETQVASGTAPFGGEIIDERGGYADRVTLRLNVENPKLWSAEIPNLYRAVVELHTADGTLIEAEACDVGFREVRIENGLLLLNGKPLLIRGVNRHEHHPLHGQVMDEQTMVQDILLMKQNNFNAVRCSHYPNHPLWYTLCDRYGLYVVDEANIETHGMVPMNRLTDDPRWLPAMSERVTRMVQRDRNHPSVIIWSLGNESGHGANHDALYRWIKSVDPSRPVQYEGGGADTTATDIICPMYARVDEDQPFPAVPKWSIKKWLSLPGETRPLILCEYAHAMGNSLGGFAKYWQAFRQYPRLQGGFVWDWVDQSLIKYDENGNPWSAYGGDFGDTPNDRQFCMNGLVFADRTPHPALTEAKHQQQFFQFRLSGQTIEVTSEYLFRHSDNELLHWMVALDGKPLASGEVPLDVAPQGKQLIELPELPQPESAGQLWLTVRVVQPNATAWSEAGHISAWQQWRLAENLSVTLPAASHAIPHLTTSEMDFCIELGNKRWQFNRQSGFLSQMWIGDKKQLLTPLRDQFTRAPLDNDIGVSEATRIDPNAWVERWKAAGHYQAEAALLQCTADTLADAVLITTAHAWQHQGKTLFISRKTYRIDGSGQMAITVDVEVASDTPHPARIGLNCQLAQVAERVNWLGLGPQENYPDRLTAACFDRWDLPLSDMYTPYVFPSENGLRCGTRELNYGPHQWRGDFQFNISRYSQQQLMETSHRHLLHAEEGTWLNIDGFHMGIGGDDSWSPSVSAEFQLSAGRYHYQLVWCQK

SMILES: CS(=O)(=O)N1CCN(CC2CC3C=CC2C3)CC1 (stereo unspecified)
EC50 [1]: > 120 µM (not active)

SMILES: COc1ccc(-c2cc(N)n(S(=O)(=O)c3c(F)c(F)c(F)c(F)c3F)n2)cc1OC
AC50 [2]: 8.51 µM (active)
EC50 [3]: 5.96 µM (inconclusive)
AC50 [4]: 0.896 µM (active)
EC50 [5]: 2.15 µM (active)
IC50 [6]: 1.18 µM (active)
IC50 (Bcl-2-related protein A1 [7]): 4.33 µM (active) and 4.96 µM (active)
AC50 [8]: 4.25 µM (active)
EC50 [9]: 2.82 µM (active)
IC50 (HEK293): > 20 µM (inactive)
AC50 [10]: 20.2 µM (active)
IC50 [11]: 16.2 µM (active)
IC50 (Beta-galactosidase): > 66.6 µM (inactive)
IC50 [12]: 6.26 µM (active)
IC50 (Bcl-2-related protein A1 [13]): 5.82 µM (active)
AC50 [14]: 3.69 µM (active)
IC50 [15]: > 100 µM (not active)
EC50 [16]: 3.9 µM (active)
IC50 (Tumor necrosis factor): 10.3 µM (active)
IC50 [17]: 0.951 µM (active)
IC50 (Bcl-2-related protein A1 [18]): 5.39 µM (active)
IC50 [19]: 16.4 µM (active)
IC50 (Beta Lactamase): 34.3 µM (inactive)

SMILES: COC(=O)Cc1ccc2c3ccccc3n(C)c2c1
IC50 [21]: > 69.5 µM (not active)

More lines, now with the values ahead:

EC50 [20]: > 30 µM (not active)
SMILES: Cc1cc(C(=O)CN2C(=O)CCC2=O)c(C)n1Cc1ccc2c(c1)OCO2

IC50 (Procathepsin L): > 59.6 µM (not active)
IC50 (Leucine aminopeptidase): < 1 µM (active)
IC50 (Aspartyl aminopeptidase): > 73.5 µM (not active)
SMILES: O=C(O)Cc1ccc(NC(=O)Nc2ccc(Br)cc2)cc1

IC50 [22]: > 111 µM (not active)
IC50 [23]: 37.8 µM (not active)
SMILES: COc1ccc(CNc2nc(NCc3ccc(OC)cc3)n(C(C)=O)n2)cc1

EC50 (Estrogen receptor): 12.8 µM (not active)
SMILES: O=C(NCCCCCCNC(=O)c1ccc(Br)s1)c1ccc(Br)s1
